Legend:
Assay type in all cases: ADME
[1] = Half-life by fluorescence method at 25 degrees C
[2] = Half-life by fluorescence method at 30 degrees C
[3] = Half-life by fluorescence method at 37 degrees C

half-life [1]: 11 h | half-life [2]: 4.6 h | half-life [3]: 2.2 h
SMILES: C[C@H]1NC(=O)CC2([C@@](C)(O)C(=O)O)CC[C@@](C)(n3cnc4nc(N)nc(O)c43)[C@@H](S2)[C@@H](O)C(=O)/C=C/C=C\c2csc1n2
